Test results taken from patent US20100190846A1, “MICROBICIDAL AGENT AND MICROBICIDAL COMPOSITION” (priority 2006, published 2010).

Tests used:
Assay type in all cases: cell-based
Streptococcus pneumoniae = assay: Agar dilution method microbicidal test; on Growth on agar plate: key: +: grew; −: did not grow
Description: (§1) As microbicidal test method for trans-p-coumaric acid, 3-hydroxypyridine, p-hydroxybenzaldehyde and vanillin, the agar dilution method was employed.
(§2) In agar dilution method, a solution in which a sample is dissolved is serially diluted several times, and each of the diluted sample solutions is mixed with agar medium to prepare plate agars having various sample concentration. Then bacteria is inoculated onto the plate agars. In cases where the sample has a microbicidal activity, the growth of the bacteria on the plates can be inhibited. The lowest concentration which can inhibit the growth of the bacteria is referred to as Minimum Inhibitory Concentration (MIC), thereby judging the degree of a microbicidal activity of the sample.
(§3) First, 400 mg of sample was dissolved in 1 mL of DMSO to prepare 400 mg/mL sample solution. Then 0.5 mL of this 400 mg/mL sample solution was diluted 2-fold to prepare 200 mg/mL sample solution. In the same manner, sample solutions of 100 mg/mL, 50.0 mg/mL, and 25.0 mg/mL were prepared. In addition, 300 mg/mL sample solution was prepared. Thereafter, 0.2 mL of these sample solutions each was mixed with 19.8 mL of BHI (Brain Heart Infusion Agar, Becton Dickinson, MD) medium, thereby preparing agar plates having the sample concentration of 4.0 mg/mL, 3.0 mg/mL, 2.0 mg/mL, 1.0 mg/mL, 0.5 mg/mL, and 0.25 mg/mL in dishes. […] Sterilized water was used for dissolving catechin, because catechin was insoluble in DMSO.
(§4) As test bacteria, 13 kinds of bacteria, i.e., Streptococcus pneumoniae, Streptococcus pyogenes, Enterococcus faecalis, Staphylococcus aureus, Escherichia coli, Salmonella sp., Yersinia enterocolitica, Vibrio parahaemolyticus, Pseudomonas aeruginosa, Bacillus cereus, Bacillus subtilis MB-32, Bacillus subtilis ATCC6633, and Candida sp., were used. These bacteria each was mixed with 2 mL of sterilized MHB^R liquid medium (Mueller Hinton Broth^R, Becton Dickinson, MD) to prepare bacterial suspension having turbidity 1 (bacterial concentration 10^8/mL). Previously, small test tubes were set into each cell of a grating and sterilized, and 1 mL of 13 bacterial suspensions were added into the small test tubes set in the grating, respectively. By using a microplanter (SAKUMA, model: MIT-P), 10 μL aliquot was collected from each test tube set in the grating and transferred to other test tube, and the transferred bacterial suspensions were diluted 100-fold (bacterial concentration 10^6/mL).
(§5) By using the microplanter, 10 μL (bacterial number […]) of this bacterial suspension was inoculated onto the plates containing the sample solution of various concentrations. The plates were incubated for 18 hours in an incubator at 37° C., and then a microbicidal activity of each compound was assessed.

Escherichia coli = assay: Agar dilution method microbicidal test; on Growth on agar plate: key: +: grew; −: did not grow
Description: as §1, §2, §3, §4, §5

Salmonella sp. = assay: Agar dilution method microbicidal test; on Growth on agar plate: key: +: grew; −: did not grow
Description: as §1, §2, §3, §4, §5

Vibrio parahaemolyticus = assay: Agar dilution method microbicidal test; on Growth on agar plate: key: +: grew; −: did not grow
Description: as §1, §2, §3, §4, §5

Bacillus subtilis MB-32 = assay: Agar dilution method microbicidal test; on Growth on agar plate: key: +: grew; −: did not grow
Description: as §1, §2, §3, §4, §5

Streptococcus pyogenes = assay: Agar dilution method microbicidal test; on Growth on agar plate: key: +: grew; −: did not grow
Description: as §1, §2, §3, §4, §5

Yersinia enterocolitica = assay: Paper disk method microbicidal test; settings: 2.5 mg/mL solution on 8.12 mm paper disk, 0 mg/mL control: 15.65 (flavone, 40% DMSO), — (catechin)
Description: As microbicidal test method for 5,7,4′-trihydroxy-3′,5′-dimethoxyflavone, the paper disk method was employed, by which method the microbicidal activity can be judged even in cases where a solvent has some influences.
In paper disk method, sample solutions having various sample concentration are prepared, and the sample solution was absorbed in a special paper disk, followed by drying the paper disk. Onto the plate which is made by mixing a prepared bacterial suspension with agar medium, the paper disks are placed. If the sample has a microbicidal activity, the inhibition ring which indicates the inhibition of bacterial growth is formed such that the center of the ring is coincident with the paper disk. The degree of a microbicidal activity is judged based on the size of the inhibition ring.
First, 4 mg of 5,7,4′-trihydroxy-3′,5′-dimethoxyflavone sample was dissolved in 200 μL to prepare 20 mg/mL sample solution. To 100 μL of this 20 mg/mL sample solution, 100 μL of sterilized water was added to prepare 200 μL of 10 mg/mL sample solution. To the solution, 60 μL DMSO and 140 μL of sterilized water were added to prepare 400 μL of 5.0 mg/mL sample solution. DMSO was used in the concentration of 40%, because the sample precipitated from 30% DMSO. To 350 μL of 5.0 mg/mL sample solution, 140 μL DMSO and 210 μL of sterilized water were added to prepare 700 μL of 2.5 mg/mL sample solution. In the same manner, 1.25 mg/mL and 0.625 mg/mL sample solutions were prepared. As a control, a solution containing 40% DMSO and 60% sterilized water was prepared. […] In a paper disk (8.12 mm diameter), 70 μL of these solutions each was absorbed, and the paper disks were dried for a day.
As test bacteria, Staphylococcus aureus, Salmonella sp., Yersinia enterocolitica, Pseudomonas aeruginosa, and Candida sp. were used. These bacteria were mixed with 2 mL of sterilized water to prepare bacterial suspensions having turbidity 1 (10^8/mL). The plate agar was made by mixing 0.2 mL of the bacterial suspension with 19.8 mL of BHI medium. The dried paper disk was placed onto the plate agar, and the plate was incubated in an incubator at 37° C., followed by assessing the activity. In the Table, (-) represents that no microbicidal activity was observed.

How did the “Growth on agar plate” value (Streptococcus pneumoniae; 0.25 mg/mL) turn out when catechin [reference compound] was run?
The value was “+”.

What about the “Growth on agar plate” value (Streptococcus pneumoniae; 0.5 mg/mL) of the same substance?
Its value is “+”.

What about the “Growth on agar plate” value (Streptococcus pneumoniae; 1.0 mg/mL) of the same substance?
The value was “−”.

And the “Growth on agar plate” value (Streptococcus pneumoniae; 2.0 mg/mL)?
The value was “−”.

And the “Growth on agar plate” value (Streptococcus pneumoniae; 3.0 mg/mL)?
The value was “−”.

What about the “Growth on agar plate” value (Streptococcus pneumoniae; 4.0 mg/mL) of the same substance?
The value was “−”.

What about the MIC (Streptococcus pneumoniae; BHI agar, 37° C., 18 hours) of the same substance?
Its MIC is 1000 µg/mL.

And the “Growth on agar plate” value (Escherichia coli; 0.25 mg/mL)?
The value was “+”.

What about the “Growth on agar plate” value (Escherichia coli; 0.5 mg/mL) of the same substance?
Its value is “+”.

And the “Growth on agar plate” value (Escherichia coli; 1.0 mg/mL)?
Its value is “+”.

And the “Growth on agar plate” value (Escherichia coli; 2.0 mg/mL)?
The value was “+”.

And the “Growth on agar plate” value (Escherichia coli; 3.0 mg/mL)?
The value was “+”.

What about the “Growth on agar plate” value (Escherichia coli; 4.0 mg/mL) of the same substance?
The value was “+”.

And the MIC (Escherichia coli; BHI agar, 37° C., 18 hours)?
Its MIC is 2000 µg/mL.

And the “Growth on agar plate” value (Salmonella sp.; 0.25 mg/mL)?
The value was “+”.

What about the “Growth on agar plate” value (Salmonella sp.; 0.5 mg/mL) of the same substance?
Its value is “+”.

What about the “Growth on agar plate” value (Salmonella sp.; 1.0 mg/mL) of the same substance?
The value was “+”.

And the “Growth on agar plate” value (Salmonella sp.; 2.0 mg/mL)?
The value was “−”.

And the “Growth on agar plate” value (Salmonella sp.; 3.0 mg/mL)?
Its value is “−”.

And the “Growth on agar plate” value (Salmonella sp.; 4.0 mg/mL)?
Its value is “−”.

And the MIC (Salmonella sp.; BHI agar, 37° C., 18 hours)?
Its MIC is 2000 µg/mL.

And the “Growth on agar plate” value (Vibrio parahaemolyticus; 0.25 mg/mL)?
The value was “+”.

What about the “Growth on agar plate” value (Vibrio parahaemolyticus; 0.5 mg/mL) of the same substance?
Its value is “−”.

And the “Growth on agar plate” value (Vibrio parahaemolyticus; 1.0 mg/mL)?
The value was “−”.

And the “Growth on agar plate” value (Vibrio parahaemolyticus; 2.0 mg/mL)?
The value was “−”.

And the “Growth on agar plate” value (Vibrio parahaemolyticus; 3.0 mg/mL)?
The value was “−”.

What about the “Growth on agar plate” value (Vibrio parahaemolyticus; 4.0 mg/mL) of the same substance?
Its value is “−”.

What about the MIC (Vibrio parahaemolyticus; BHI agar, 37° C., 18 hours) of the same substance?
The MIC was 500 µg/mL.

And the “Growth on agar plate” value (Bacillus subtilis MB-32; 0.25 mg/mL)?
The value was “+”.

What about the “Growth on agar plate” value (Bacillus subtilis MB-32; 0.5 mg/mL) of the same substance?
The value was “+”.

And the “Growth on agar plate” value (Bacillus subtilis MB-32; 1.0 mg/mL)?
Its value is “+”.

What about the “Growth on agar plate” value (Bacillus subtilis MB-32; 2.0 mg/mL) of the same substance?
Its value is “−”.

What about the “Growth on agar plate” value (Bacillus subtilis MB-32; 3.0 mg/mL) of the same substance?
The value was “−”.

What about the “Growth on agar plate” value (Bacillus subtilis MB-32; 4.0 mg/mL) of the same substance?
Its value is “−”.

What about the MIC (Bacillus subtilis MB-32; BHI agar, 37° C., 18 hours) of the same substance?
Its MIC is 2000 µg/mL.

And the “Growth on agar plate” value (Streptococcus pyogenes; 0.25 mg/mL)?
The value was “+”.

What about the “Growth on agar plate” value (Streptococcus pyogenes; 0.5 mg/mL) of the same substance?
Its value is “+”.

What about the “Growth on agar plate” value (Streptococcus pyogenes; 1.0 mg/mL) of the same substance?
Its value is “+”.

And the “Growth on agar plate” value (Streptococcus pyogenes; 2.0 mg/mL)?
The value was “−”.

What about the “Growth on agar plate” value (Streptococcus pyogenes; 3.0 mg/mL) of the same substance?
Its value is “−”.

What about the “Growth on agar plate” value (Streptococcus pyogenes; 4.0 mg/mL) of the same substance?
The value was “−”.

What about the MIC (Streptococcus pyogenes; BHI agar, 37° C., 18 hours) of the same substance?
The MIC was 2000 µg/mL.

And the “size of the inhibition ring” value (Yersinia enterocolitica)?
Its value is 9.49.
